Test results reported in article PMC4500456 (Journal of Medicinal Chemistry, 2015).

Test system: P. falciparum W2 (chloroquine resistant) strain
Assay: In vitro activity against cultured W2 strain P. falciparum
Assay type: cell-based, Plasmodium falciparum

Row | SMILES | fold more active than acid compound 4 (ester 5 vs acid 4, W2 and 3D7 strains) | IC50 (Plasmodium falciparum, W2, 48 h, read-out: IC50 (nM) (W2))
1 | COC(=O)c1ccc(Oc2ccc3c(c2)B(O)OC3)cn1 [Compound 5, Methyl 5-(1-Hydroxy-1,3-dihydrobenzo[c][1,2]oxaborol-6-yloxy)picolinate] | about 5 fold | –
2 | CCN(CC)CCCC(C)Nc1ccnc2cc(Cl)ccc12 (centres unmarked) [chloroquine] | – | 21 ± 6
